Experimental data as given in ChEMBL document CHEMBL2331203, “Optimization of inhibitors of the tyrosine kinase EphB4. 2. Cellular potency improvement and binding mode validation by X-ray crystallography” (J Med Chem, 2013).

Key:
[1] = Permeability from apical to basolateral side in human Caco2 cells assessed as compound recovery after 2 hrs by LC-MS/MS analysis; assay type: ADME, cell-based; conditions: Caco-2, read-out: permeability
[2] = Permeability from basolateral to apical side in human Caco2 cells assessed as compound recovery after 2 hrs by LC-MS/MS analysis; assay type: ADME, cell-based; conditions: Caco-2, read-out: permeability
[3] = Apparent permeability from apical to basolateral side in human Caco2 cells after 2 hrs by LC-MS/MS analysis; assay type: ADME, cell-based; conditions: Caco-2
[4] = Apparent permeability from basolateral to apical side in human Caco2 cells after 2 hrs by LC-MS/MS analysis; assay type: ADME, cell-based; conditions: Caco-2
[5] = molecular target: T1, Ephrin type-B receptor 4 (Homo sapiens) (UniProt P54760); assay: Inhibition of EphB4 (unknown origin) transfected in CHO cells using Z'-LYTE TYR-1 peptide as substrate at 10 uM after 2 hrs by FRET assay; assay type: cell-based
T1 sequence (whole entry): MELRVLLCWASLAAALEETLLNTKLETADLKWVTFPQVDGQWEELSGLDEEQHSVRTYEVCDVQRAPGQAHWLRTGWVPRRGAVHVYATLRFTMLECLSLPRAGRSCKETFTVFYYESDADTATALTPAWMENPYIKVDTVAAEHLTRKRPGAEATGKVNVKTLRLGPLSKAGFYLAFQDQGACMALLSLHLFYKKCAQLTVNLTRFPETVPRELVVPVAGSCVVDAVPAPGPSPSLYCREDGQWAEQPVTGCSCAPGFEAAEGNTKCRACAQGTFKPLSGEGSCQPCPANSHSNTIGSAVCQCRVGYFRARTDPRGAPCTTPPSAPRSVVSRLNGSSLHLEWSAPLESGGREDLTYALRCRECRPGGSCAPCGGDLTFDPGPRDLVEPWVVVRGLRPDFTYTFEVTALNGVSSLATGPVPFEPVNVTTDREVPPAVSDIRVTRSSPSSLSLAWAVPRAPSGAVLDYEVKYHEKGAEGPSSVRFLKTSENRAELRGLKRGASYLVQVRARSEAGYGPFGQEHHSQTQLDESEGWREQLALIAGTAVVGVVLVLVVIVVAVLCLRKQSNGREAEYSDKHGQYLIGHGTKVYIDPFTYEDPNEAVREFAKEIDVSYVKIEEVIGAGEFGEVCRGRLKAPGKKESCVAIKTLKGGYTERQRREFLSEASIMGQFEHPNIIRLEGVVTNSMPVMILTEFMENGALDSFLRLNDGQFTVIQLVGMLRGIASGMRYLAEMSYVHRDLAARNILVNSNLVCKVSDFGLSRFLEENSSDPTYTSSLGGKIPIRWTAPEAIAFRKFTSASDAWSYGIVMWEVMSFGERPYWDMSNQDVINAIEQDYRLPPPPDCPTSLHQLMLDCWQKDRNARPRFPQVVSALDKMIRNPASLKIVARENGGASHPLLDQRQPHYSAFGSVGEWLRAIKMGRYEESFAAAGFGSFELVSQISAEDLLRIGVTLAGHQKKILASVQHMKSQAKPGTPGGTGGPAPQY

[6] = Cytotoxicity against human GXF251L cells after 4 days by propidium iodide staining; conditions: GXF 251L, 96 h
[7] = Cytotoxicity against human PAXF 1657L cells after 4 days by propidium iodide staining; conditions: 96 h
DU-145 = assay: Cytotoxicity against human PRXF DU145 cells after 4 days by propidium iodide staining; conditions: DU-145, 96 h
[8] = Cytotoxicity against human CXF 1103L cells after 4 days by propidium iodide staining; conditions: 96 h
[9] = Cytotoxicity against human LXFA 983L cells after 4 days by propidium iodide staining; conditions: 96 h
[10] = Cytotoxicity against human RXF 393NL cells after 4 days by propidium iodide staining; conditions: 96 h
[11] = molecular target: Tyrosine-protein kinase Lck (Homo sapiens, UniProt P06239); assay: Inhibition of Lck (unknown origin) using [gamma-33P]ATP after 30 mins by radiometric assay
[12] = molecular target: Proto-oncogene tyrosine-protein kinase Src (Homo sapiens, UniProt P12931)
Description: Inhibition of Src (unknown origin) using [gamma-33P]ATP after 30 mins by radiometric assay

K562 = assay: Cytotoxicity against human K562 cells by SRB assay; assay type: functional
[13] = molecular target: Tyrosine-protein kinase ABL1 (Homo sapiens, UniProt P00519)
Description: Inhibition of Abl (unknown origin) using [gamma-33P]ATP after 30 mins by radiometric assay

Ephrin type-B receptor 4 = molecular target: T2, Ephrin type-B receptor 4 (Homo sapiens, UniProt P54760)
T2 sequence (P54760 whole entry): T1 sequence (whole entry)
Description: Inhibition of human myc-tagged full length EphB4 expressed in MEF cells assessed as inhibition of ephrinB2-Fc-induced autophosphorylation incubated for 90 mins prior to ephrinB2-Fc-induction measured after 2 hrs by sandwich ELISA

in vitro = conditions: human, Caco-2
Description: Efflux ratio of apparent permeability from basolateral to apical side to apical to basolateral side in human Caco2 cells

SNB-75 = assay: Cytotoxicity against human SNB75 cells by SRB assay; assay type: functional
Hs-578T = assay: Cytotoxicity against human Hs578T cells by SRB assay; assay type: functional

Tyrosine-protein kinase Lck, sequence (P06239 whole entry): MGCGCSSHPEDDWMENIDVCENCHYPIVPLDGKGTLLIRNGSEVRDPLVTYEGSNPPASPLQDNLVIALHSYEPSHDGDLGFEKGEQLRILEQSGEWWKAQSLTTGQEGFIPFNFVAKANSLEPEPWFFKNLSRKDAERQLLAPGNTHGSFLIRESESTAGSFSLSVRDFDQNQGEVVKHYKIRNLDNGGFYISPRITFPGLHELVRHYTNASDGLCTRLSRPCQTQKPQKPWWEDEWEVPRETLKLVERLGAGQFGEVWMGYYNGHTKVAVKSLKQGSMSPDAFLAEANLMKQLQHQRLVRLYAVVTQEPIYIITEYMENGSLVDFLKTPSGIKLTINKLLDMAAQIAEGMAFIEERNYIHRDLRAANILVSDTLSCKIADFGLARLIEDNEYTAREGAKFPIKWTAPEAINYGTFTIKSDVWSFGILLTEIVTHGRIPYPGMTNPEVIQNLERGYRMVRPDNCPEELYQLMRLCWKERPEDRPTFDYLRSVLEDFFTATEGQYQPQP
Proto-oncogene tyrosine-protein kinase Src, sequence (P12931 2-536 limits assumed): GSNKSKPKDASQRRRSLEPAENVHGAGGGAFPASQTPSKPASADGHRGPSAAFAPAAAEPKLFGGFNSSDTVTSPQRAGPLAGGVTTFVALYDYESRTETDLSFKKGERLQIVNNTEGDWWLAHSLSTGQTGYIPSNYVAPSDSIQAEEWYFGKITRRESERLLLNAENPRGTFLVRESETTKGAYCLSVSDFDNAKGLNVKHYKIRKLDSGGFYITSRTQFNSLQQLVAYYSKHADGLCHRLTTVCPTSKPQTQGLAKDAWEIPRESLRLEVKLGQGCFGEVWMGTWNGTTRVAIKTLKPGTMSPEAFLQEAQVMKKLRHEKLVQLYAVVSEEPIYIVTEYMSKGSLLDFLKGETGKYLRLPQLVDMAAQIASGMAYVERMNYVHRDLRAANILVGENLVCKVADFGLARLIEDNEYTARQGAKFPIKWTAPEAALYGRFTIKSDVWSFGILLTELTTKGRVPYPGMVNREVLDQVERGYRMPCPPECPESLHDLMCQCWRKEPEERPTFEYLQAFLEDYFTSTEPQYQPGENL
Tyrosine-protein kinase ABL1, sequence (P00519 whole entry): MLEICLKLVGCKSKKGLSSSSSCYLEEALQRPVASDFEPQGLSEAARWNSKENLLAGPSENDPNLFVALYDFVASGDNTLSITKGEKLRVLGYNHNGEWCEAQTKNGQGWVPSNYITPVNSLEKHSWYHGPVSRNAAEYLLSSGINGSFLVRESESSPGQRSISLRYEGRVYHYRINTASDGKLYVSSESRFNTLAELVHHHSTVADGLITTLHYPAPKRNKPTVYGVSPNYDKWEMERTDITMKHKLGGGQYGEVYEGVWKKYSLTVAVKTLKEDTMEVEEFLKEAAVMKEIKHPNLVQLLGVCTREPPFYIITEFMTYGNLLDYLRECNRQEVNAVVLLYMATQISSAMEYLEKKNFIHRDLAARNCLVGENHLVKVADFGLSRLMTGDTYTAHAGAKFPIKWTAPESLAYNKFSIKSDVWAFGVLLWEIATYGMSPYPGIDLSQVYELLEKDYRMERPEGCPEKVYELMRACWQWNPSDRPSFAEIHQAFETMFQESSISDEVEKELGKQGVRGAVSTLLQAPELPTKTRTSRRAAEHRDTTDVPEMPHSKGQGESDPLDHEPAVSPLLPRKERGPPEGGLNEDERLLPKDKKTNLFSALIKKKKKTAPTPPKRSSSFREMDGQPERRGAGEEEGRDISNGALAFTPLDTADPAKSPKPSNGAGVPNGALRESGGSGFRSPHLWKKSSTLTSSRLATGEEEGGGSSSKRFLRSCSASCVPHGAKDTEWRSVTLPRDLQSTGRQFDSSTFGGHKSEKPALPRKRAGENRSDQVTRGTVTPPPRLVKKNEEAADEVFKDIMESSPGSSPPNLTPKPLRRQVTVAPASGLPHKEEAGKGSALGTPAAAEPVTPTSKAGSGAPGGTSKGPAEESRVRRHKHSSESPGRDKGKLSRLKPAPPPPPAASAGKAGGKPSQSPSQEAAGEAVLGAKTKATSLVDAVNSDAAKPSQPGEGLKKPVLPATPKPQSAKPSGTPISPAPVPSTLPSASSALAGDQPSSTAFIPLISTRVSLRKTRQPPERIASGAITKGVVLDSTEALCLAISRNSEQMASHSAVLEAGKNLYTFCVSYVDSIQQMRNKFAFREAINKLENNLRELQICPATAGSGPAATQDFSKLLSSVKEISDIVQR

| SMILES | inhibition [5] [%] | IC50 [6] [nM] | IC50 [7] [nM] | IC50 (DU-145) [nM] | IC50 [8] [nM] | IC50 [9] [nM] | IC50 [10] [nM] | further results |
| --- | --- | --- | --- | --- | --- | --- | --- | --- |
| COc1ccccc1-n1c(-c2ccccc2)cn2c3c(=O)[nH]c(=O)n(C)c3nc12 | – | – | – | – | – | – | – | recovery at 2 h [1]: 71%; recovery at 2 h [2]: 76%; Papp A→B at 2 h [3]: 32.3 ×10⁻⁶ cm/s; Papp B→A at 2 h [4]: 35.8 ×10⁻⁶ cm/s |
| CCCCn1c(-c2ccccc2)cn2c3c(=O)[nH]c(=O)n(C)c3nc12 | – | – | – | – | – | – | – | recovery at 2 h [1]: 69%; recovery at 2 h [2]: 78%; Papp A→B at 2 h [3]: 42.5 ×10⁻⁶ cm/s; Papp B→A at 2 h [4]: 42.5 ×10⁻⁶ cm/s |
| CCCCn1c(-c2cccc(Cl)c2)cn2c3c(=O)[nH]c(=O)n(C)c3nc12 | 22 | – | – | – | – | – | – | – |
| CCCCn1c(-c2ccccc2Cl)cn2c3c(=O)[nH]c(=O)n(C)c3nc12 | – | 18200 | 4940 | 3180 | 1140 | 1620 | 2930 | – |
| COc1ccccc1-n1c(-c2cccc(Cl)c2)cn2c3c(=O)[nH]c(=O)n(C)c3nc12 | 12 | – | – | – | – | – | – | – |
| CCCCCn1c(-c2ccccc2C)cn2c3c(=O)[nH]c(=O)n(C)c3nc12 | – | 4980 | 5880 | 6970 | 2570 | 2720 | 5580 | – |
| CCCCn1c(-c2ccc(F)cc2C)cn2c3c(=O)[nH]c(=O)n(C)c3nc12 | – | 14900 | 9460 | 9590 | 4040 | 6020 | 8690 | IC50 [11]: 617 nM |
| CCCCn1c(-c2c(C)cccc2C)cn2c3c(=O)[nH]c(=O)n(C)c3nc12 | 49 | – | – | – | – | – | – | – |
| COc1ccccc1-n1c(-c2cc(O)ccc2C)cn2c3c(=O)[nH]c(=O)n(C)c3nc12 | – | 20200 | 2010 | 2700 | 32600 | 9160 | 1760 | IC50 [12]: 1.14 nM; GI50 (K562): 309 nM; recovery at 2 h [1]: 51%; IC50 [13]: 0.92 nM; IC50 (Ephrin type-B receptor 4): 130 nM; efflux ratio (in vitro): 7.3; GI50 (SNB-75): 128 nM; recovery at 2 h [2]: 74%; Papp A→B at 2 h [3]: 3.13 ×10⁻⁶ cm/s; Papp B→A at 2 h [4]: 23 ×10⁻⁶ cm/s; GI50 (Hs-578T): 562 nM; IC50 [11]: 1.3 nM |
| CCCCn1c(-c2ccccc2C(F)(F)F)cn2c3c(=O)[nH]c(=O)n(C)c3nc12 | 15 | – | – | – | – | – | – | – |
| Cc1nc(Nc2ncc(C(=O)Nc3c(C)cccc3Cl)s2)cc(N2CCN(CCO)CC2)n1 [DASATINIB] | – | 2250 | 121 | 62.3 | 4360 | 56.5 | 21.7 | – |
